The values that follow come from ChEMBL document CHEMBL1201862, “PubChem BioAssay data set” (2004).

Data set [1] concerns the target Cytochrome P450 2C19 (Homo sapiens, UniProt P33261). Put plainly: Cytochrome panel assay with activity outcomes. Panel member name: p450-cyp2c19 Compounds with AC50 equal or less than 10 uM are considered active. In kind it is functional.
The target of data set [2] is Cytochrome P450 2D6 (Homo sapiens, UniProt P10635).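 Also: CYP2D6 member of a cytochrome P450 panel assay.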
Chain of Cytochrome P450 2D6 (P10635 whole entry): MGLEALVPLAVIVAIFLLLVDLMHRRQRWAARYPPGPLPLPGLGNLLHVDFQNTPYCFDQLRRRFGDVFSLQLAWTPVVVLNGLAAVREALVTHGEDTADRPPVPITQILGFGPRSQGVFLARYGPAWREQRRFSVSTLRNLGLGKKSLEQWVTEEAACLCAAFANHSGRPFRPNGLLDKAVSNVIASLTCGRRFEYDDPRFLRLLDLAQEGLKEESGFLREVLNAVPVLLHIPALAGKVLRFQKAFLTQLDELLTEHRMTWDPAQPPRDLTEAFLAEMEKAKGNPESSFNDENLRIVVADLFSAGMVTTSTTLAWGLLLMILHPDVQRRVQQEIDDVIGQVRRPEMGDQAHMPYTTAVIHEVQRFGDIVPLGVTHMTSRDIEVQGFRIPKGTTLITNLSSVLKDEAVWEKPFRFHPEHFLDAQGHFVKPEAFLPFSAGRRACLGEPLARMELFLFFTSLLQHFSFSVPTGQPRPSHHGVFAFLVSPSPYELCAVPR
Data set [3] has as its target Dual specificity protein phosphatase 3 (Homo sapiens, UniProt P51452). Kind of data set: SAR VHR1 Fluorescent Assay for In Vitro dose response studies Set 3. [Related pubchem assays (depositor defined):AID1654, AID1661, AID1878]. In kind it is functional.
In data set [4] the target is T1, Mannose-6-phosphate isomerase (Homo sapiens, UniProt P34949).
T1 sequence (P34949 whole entry): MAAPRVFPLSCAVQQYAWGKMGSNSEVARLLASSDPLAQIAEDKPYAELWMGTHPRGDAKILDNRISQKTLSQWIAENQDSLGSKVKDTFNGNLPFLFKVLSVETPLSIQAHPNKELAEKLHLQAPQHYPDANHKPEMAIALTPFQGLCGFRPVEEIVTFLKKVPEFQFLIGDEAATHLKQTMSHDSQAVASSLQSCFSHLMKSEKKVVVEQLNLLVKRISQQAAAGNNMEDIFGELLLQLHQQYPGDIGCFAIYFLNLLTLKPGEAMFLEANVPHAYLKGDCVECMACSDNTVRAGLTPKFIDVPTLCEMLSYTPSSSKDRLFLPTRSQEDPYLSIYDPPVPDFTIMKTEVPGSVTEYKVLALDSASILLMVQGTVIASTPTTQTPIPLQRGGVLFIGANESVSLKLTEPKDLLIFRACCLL
Put plainly: Confirmation of compounds inhibiting phosphomannose isomerase (PMI) via a fluorescence intensity assay using a high concentration of mannose 6-phosphate. [Related pubchem assays (depositor defined):AID1209, AID1220, AID1545, AID1553, AID1620].

Data set [5] deals with T2, Polyadenylate-binding protein 1 (Homo sapiens, UniProt P11940). Put plainly: PABP1 MLLE–PAM2 binding inhibitor potency, dose response, biochemical, fluorescence polarization, FITC-PAM2 peptide (AID 602259). The conditions noted are these: read-out: IC50_Mean. It counts as functional.
T2 sequence (P11940 whole entry): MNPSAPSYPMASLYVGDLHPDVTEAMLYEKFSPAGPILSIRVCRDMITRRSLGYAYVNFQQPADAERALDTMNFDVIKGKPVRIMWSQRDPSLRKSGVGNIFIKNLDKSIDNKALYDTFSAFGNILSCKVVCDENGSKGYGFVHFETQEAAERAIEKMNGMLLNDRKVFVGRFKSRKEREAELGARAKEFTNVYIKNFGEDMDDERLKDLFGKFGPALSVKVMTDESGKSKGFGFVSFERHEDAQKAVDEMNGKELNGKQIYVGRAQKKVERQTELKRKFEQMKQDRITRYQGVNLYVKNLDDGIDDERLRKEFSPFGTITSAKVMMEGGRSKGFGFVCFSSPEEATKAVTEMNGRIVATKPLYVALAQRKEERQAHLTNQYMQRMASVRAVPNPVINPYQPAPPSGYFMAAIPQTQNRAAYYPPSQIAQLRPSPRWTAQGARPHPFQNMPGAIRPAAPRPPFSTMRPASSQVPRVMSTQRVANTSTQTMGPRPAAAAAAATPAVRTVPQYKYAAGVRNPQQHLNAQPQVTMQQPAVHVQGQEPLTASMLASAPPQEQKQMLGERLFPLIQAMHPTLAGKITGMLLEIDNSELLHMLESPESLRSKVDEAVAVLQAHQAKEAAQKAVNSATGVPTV
Data set [6] addresses DNA dC->dU-editing enzyme APOBEC-3A (Homo sapiens, UniProt P31941). Put plainly: APOBEC3A DNA deaminase inhibitors, dose response, biochemical (AID 504722). In kind it is functional.
Data set [7] is described as follows: cells. In kind it is functional.
Data set [8] deals with Hexokinase (Trypanosoma brucei, UniProt Q38C41). Put plainly: Confirmation assay for inhibitors of Trypanosoma brucei hexokinase 1-Analogue-first series. [Related pubchem assays (depositor defined):AID1430, AID1632, AID2516, AID2560, AID2579, AID2600, AID449725, AID492951]. It counts as functional.
Chain of Hexokinase (Q38C41 whole entry): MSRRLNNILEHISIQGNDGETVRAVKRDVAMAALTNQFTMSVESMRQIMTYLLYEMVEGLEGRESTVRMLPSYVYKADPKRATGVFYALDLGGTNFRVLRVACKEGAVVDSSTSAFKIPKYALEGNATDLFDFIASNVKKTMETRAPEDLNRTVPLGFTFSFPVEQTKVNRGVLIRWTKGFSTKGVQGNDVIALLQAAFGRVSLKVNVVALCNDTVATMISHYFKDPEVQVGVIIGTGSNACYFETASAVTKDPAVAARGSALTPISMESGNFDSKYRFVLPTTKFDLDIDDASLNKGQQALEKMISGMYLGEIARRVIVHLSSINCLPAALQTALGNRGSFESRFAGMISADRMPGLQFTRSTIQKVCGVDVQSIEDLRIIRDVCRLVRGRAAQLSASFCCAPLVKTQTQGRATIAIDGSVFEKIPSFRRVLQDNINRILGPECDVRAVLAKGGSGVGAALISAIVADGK
The subject of data set [9] is Streptococcus. Kind of data set: Group A Streptococcus viability loss, dose response, counter-screen for streptokinase expression inhibitor project, luminescence, BacTiterGlo (AID 1915).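 Also: potency for reduction of bacterial viability or growth.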 In kind it is functional, organism-based.
A short description of data set [10]: growth suppression of PTEN-null colon cells, dose response, cell-based, HCT116 PTEN knockout (AID 1047).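 Also: HCT116 colon tumor cells with PTEN knocked out; cells exposed to compound for 60 hours before readout; potency for loss of cell viability measured by luminescence.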 It counts as functional.
The nature of data set [11]: growth suppression of beta-catenin-knockout colon cells, dose response, cell-based, HCT116, human colon tumor (AID 1045).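 Also: HCT116 colon tumor cells with beta catenin knocked out; cells exposed to compound for 60 hours.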 In kind it is functional.
Data set [12] can be described thus: Fluorescence-based cell-based high throughput dose response assay for inhibitors of the interaction of nucleotide-binding oligomerization domain containing 2 (NOD2) and the receptor-interacting serine-threonine kinase 2 (RIPK2). In kind it is functional. The conditions noted are these: Homo sapiens.
For data set [13], the target named is T1, Mannose-6-phosphate isomerase. Put plainly: PMI enzyme inhibitors, confirmation, biochemical, fluorescence intensity (AID 1535).
Data set [14] in a line: inhibitors of intracellular T. cruzi replication, confirmation, NIH3T3 host cells, beta-gal luminescence (AID 2044).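 Also: intracellular parasites grown in NIH/3T3 mouse fibroblasts as host cells; luminescent beta-galactosidase reporter signal from transgenic T. cruzi replicating inside host cells; inhibitors lower the luminescence signal.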 In kind it is functional, cell-based.
The nature of data set [15]: Vero E6 cell cytotoxicity, dose response, cytotoxicity control for non-replicating M. tuberculosis project, secondary assay (AID 492998). It counts as functional, VeroE6. Conditions: Vero C1008.
Data set [16] concerns the target DNA dC->dU-editing enzyme APOBEC-3G (Homo sapiens, UniProt Q9HC16). Put plainly: Dose Response confirmation of small molecule APOBEC3G DNA Deaminase Inhibitors via a fluorescence-based single-stranded DNA deaminase assay. [Related pubchem assays (depositor defined):AID493012, AID493028]. In kind it is functional.
Data set [17] deals with Eukaryotic translation initiation factor 4E (Mus musculus, UniProt P63073). Kind of data set: eIF4E–eIF4G protein interaction inhibitors, dose response, biochemical, TR-FRET (AID 855).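 Also: potency for disrupting eIF4E binding to eIF4GI seen as loss of FRET.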 It counts as functional. (TR-FRET usually uses a lanthanide donor and a delayed reading to cut background.)
Chain of Eukaryotic translation initiation factor 4E (P63073 whole entry): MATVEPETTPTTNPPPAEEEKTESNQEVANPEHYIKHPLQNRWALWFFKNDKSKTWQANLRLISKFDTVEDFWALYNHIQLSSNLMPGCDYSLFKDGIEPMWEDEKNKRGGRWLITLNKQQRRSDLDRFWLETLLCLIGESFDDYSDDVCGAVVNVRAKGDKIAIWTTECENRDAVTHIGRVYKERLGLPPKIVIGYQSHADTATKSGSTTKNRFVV
Data set [18] deals with Phosphoethanolamine/phosphocholine phosphatase (Homo sapiens, UniProt Q8TCT1). Kind of data set: SAR assay for compounds that inhibit PHOSPHO1. [Related pubchem assays (depositor defined):AID1545, AID1565, AID1574].
Chain of Phosphoethanolamine/phosphocholine phosphatase (Q8TCT1 whole entry): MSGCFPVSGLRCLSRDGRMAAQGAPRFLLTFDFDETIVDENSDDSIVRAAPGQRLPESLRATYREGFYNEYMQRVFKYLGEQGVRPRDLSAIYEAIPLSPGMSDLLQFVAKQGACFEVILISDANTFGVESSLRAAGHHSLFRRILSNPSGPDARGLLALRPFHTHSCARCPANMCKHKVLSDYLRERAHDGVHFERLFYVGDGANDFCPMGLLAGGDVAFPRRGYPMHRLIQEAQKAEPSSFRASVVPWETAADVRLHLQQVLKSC
Data set [19] concerns the target Glucose-6-phosphate 1-dehydrogenase (Homo sapiens, UniProt P11413). Put plainly: human G6PD enzyme inhibitors, dose response, selectivity assay for P. falciparum G6PD inhibitor project, biochemical, fluorescence (AID 504792). It counts as functional.
Data set [20] has as its target T2, Polyadenylate-binding protein 1. Put plainly: PABP1 MLLE–PAM2 interaction inhibitors, dose response, miRNA deadenylation inhibitor project, biochemical, fluorescence polarization, Cy5-PAM2 peptide, secondary (AID 602260). It counts as functional. The conditions noted are these: read-out: IC50_Mean. On the technique in general: Polarisation of emitted light reports the rotation of a fluorescent probe.

Data set [21] in a line: THP-1 cell cytotoxicity, dose response, cytotoxicity control for non-replicating M. tuberculosis project (AID 489025). In kind it is functional.
Data set [22] addresses T3, Mitochondrial peptide methionine sulfoxide reductase (Bos taurus, UniProt P54149).
T3 sequence (P54149 whole entry): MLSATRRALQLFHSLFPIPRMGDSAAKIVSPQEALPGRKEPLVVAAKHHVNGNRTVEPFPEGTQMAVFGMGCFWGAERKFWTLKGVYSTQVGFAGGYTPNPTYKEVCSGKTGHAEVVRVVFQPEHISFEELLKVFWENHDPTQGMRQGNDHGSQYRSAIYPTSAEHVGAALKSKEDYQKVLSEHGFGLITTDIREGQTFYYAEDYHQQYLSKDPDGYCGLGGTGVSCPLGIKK
Put plainly: Absorbance-based biochemical high throughput dose response assay for activators of Methionine sulfoxide reductase A (MsrA). In kind it is functional.

For data set [23], the target named is T4, Streptokinase A (Streptococcus pyogenes serotype M1, UniProt P10520).
T4 sequence (P10520 whole entry): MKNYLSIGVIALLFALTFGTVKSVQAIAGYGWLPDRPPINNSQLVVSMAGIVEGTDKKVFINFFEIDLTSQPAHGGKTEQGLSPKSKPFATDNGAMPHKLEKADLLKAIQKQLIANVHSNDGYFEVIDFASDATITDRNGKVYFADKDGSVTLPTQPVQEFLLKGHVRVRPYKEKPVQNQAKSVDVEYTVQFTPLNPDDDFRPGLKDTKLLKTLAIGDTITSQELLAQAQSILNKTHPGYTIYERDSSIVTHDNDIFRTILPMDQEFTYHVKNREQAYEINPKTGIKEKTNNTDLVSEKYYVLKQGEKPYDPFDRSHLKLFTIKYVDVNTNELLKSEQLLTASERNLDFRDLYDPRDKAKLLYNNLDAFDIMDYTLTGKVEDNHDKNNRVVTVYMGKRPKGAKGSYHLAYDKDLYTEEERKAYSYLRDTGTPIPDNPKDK
Kind of data set: S. pyogenes streptokinase expression inhibitors, potency, dose response, plasminogen activation absorbance, OD405 (AID 1914).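 Also: secreted streptokinase activity via plasminogen activation per viability signal from cell pellet.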 In kind it is functional, Streptococcus pyogenes M1 GAS.

In data set [24] the target is Heat shock protein HSP 90-alpha (Homo sapiens, UniProt P07900). In kind it is functional, organism-based.
In data set [25] the target is Beta Lactamase (Pseudomonas aeruginosa, UniProt Q932Y6). Put plainly: beta-lactamase reporter inhibitor potency, dose response, artefact control for NOD2-RIPK2 interaction inhibitor project, BLA reporter cells, FRET fluorescence (AID 651552). In kind it is functional, cell-based.
Chain of Beta Lactamase (Q932Y6 whole entry): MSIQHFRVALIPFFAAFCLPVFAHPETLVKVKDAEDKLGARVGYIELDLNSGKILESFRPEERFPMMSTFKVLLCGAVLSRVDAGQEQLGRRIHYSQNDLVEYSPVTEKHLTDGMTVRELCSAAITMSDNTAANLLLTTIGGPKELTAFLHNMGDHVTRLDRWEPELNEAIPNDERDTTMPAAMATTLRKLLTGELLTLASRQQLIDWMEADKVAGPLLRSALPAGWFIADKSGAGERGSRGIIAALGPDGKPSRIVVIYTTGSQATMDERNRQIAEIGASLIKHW
The subject of data set [26] is Streptococcus sp. 'group A'. Put plainly: growth inhibition of control SK(-) GAS strain, dose response, counter-screen for streptokinase expression inhibitor project, luminescence, kanamycin, BacTiterGlo, confirmation (AID 1900). It counts as functional, organism-based.
A short description of data set [27]: Luminescence Cell-Based Dose Response HTS to Identify Inhibitors of 5'UTR Stem-Loop Driven Prion Protein mRNA Translation in H4 Neuroglioblastoma Cells. [Related pubchem assays: 1827 (Project Summary), 1813 (Primary HTS)]. In kind it is functional.
Data set [28] is described as follows: insulin promoter down-regulators in MIN6 cells, imaging, high-content screening, mouse beta cells (AID 1628). It counts as functional.
Data set [29] is described as follows: inhibitors of firefly luciferase expression or activity, dose response, H4 neuroglioma cells, luminescence (AID 1990). In kind it is functional, cell-based.
Data set [30] in a line: inhibitors of SNCA 5'UTR-driven reporter translation, confirmation, H4 neuroglioma cells, luminescence (AID 1988). In kind it is functional, cell-based.
The nature of data set [31]: cytotoxicity in MIN6 insulinoma cells, dose response, cytotoxicity control, cell-based, mouse insulinoma (AID 2122).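 Also: confirmatory high-throughput counterscreen run to flag cytotoxic compounds; mouse MIN-6 beta cells carrying an insulin promoter eGFP reporter.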 In kind it is functional.
Data set [32] has as its system INS1. Kind of data set: protection of INS-1E cells from cytokine death, dose response, ATP luminescence, dry powder (AID 488844). In kind it is functional, cell-based. Conditions: Rattus norvegicus.
The target in data set [33] is Mitogen-activated protein kinase 10 (Homo sapiens, UniProt P53779). Put plainly: Dose response biochemical screening assay for inhibitors of c-Jun N-Terminal Kinase 3 (JNK3). [Related pubchem assays: 746 ].
Chain of Mitogen-activated protein kinase 10 (P53779 whole entry): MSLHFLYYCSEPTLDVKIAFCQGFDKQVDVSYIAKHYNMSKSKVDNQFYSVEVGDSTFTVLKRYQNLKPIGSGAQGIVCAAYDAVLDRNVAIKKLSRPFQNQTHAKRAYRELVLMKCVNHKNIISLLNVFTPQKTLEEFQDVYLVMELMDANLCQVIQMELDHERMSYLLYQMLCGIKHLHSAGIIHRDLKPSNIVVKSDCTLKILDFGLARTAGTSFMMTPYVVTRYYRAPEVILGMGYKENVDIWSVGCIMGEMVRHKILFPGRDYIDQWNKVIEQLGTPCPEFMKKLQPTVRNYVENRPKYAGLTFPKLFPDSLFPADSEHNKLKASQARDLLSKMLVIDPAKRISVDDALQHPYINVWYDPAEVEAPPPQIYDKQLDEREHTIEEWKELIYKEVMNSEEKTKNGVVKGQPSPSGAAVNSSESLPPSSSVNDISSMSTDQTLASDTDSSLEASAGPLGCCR
Data set [34] deals with CAAX prenyl protease 1 (Saccharomyces cerevisiae S288c, UniProt P47154). Kind of data set: Ste24 protease inhibitors, dose response, biochemical, S. cerevisiae, plate reader, cherry-pick (AID 488815).
Data set [35] has as its target T5, CAAX prenyl protease 2 (Saccharomyces cerevisiae S288c, UniProt Q03530).
T5 sequence (Q03530 whole entry): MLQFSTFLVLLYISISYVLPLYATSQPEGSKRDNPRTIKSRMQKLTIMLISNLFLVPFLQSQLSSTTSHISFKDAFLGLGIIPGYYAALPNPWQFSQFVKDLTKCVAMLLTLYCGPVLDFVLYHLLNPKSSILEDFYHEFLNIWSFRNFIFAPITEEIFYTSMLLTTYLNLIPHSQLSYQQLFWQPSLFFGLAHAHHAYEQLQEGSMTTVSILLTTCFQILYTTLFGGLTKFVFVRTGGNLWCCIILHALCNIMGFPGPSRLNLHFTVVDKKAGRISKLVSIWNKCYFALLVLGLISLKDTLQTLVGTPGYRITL
It counts as biochemical.

For data set [36], the target named is UDP-galactopyranose mutase (Mycobacterium tuberculosis, UniProt P9WIQ1). Put plainly: Inhibitors of Mycobacterium tuberculosis UDP-galactopyranose mutase (UGM) enzyme Measured in Biochemical System Using Plate Reader - 2105-02_Inhibitor_Dose_CherryPick_Activity. [Related pubchem assays (depositor defined):AID504439].
Chain of UDP-galactopyranose mutase (P9WIQ1 whole entry): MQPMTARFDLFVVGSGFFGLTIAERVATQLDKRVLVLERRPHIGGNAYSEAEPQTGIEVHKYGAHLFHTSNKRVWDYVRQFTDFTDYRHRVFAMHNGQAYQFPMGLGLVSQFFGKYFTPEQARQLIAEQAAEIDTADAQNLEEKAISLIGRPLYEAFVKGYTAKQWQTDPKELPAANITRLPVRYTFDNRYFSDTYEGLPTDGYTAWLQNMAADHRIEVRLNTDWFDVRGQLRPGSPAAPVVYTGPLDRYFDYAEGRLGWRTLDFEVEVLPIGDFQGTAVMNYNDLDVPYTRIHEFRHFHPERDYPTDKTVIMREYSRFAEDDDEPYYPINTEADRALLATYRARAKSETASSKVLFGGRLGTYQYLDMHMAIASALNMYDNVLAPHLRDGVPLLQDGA

Activity calls are given as the source filed them.

Chain of Dual specificity protein phosphatase 3 (P51452 whole entry): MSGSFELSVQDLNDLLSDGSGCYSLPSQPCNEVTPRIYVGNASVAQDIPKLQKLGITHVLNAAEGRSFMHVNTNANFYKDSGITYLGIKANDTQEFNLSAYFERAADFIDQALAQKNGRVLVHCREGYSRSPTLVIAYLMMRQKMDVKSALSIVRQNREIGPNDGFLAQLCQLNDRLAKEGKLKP
Chain of DNA dC->dU-editing enzyme APOBEC-3G (Q9HC16 whole entry): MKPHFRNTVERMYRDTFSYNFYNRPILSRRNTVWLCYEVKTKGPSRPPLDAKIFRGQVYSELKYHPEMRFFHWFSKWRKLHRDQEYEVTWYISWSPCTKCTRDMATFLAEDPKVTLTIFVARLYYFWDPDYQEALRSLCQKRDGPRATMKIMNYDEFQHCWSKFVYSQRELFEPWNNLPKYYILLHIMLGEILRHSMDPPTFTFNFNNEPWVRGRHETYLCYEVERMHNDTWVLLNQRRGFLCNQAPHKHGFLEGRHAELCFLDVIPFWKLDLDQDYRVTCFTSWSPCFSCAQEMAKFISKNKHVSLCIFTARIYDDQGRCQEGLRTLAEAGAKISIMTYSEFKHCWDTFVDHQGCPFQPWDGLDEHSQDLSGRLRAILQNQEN
Chain of DNA dC->dU-editing enzyme APOBEC-3A (P31941 whole entry): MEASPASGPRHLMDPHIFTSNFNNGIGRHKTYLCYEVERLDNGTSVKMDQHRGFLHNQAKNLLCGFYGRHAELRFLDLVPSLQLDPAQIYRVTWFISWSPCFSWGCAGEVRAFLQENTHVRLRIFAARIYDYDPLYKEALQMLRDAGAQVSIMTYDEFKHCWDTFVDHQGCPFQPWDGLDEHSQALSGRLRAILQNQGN
Chain of Cytochrome P450 2C19 (P33261 whole entry): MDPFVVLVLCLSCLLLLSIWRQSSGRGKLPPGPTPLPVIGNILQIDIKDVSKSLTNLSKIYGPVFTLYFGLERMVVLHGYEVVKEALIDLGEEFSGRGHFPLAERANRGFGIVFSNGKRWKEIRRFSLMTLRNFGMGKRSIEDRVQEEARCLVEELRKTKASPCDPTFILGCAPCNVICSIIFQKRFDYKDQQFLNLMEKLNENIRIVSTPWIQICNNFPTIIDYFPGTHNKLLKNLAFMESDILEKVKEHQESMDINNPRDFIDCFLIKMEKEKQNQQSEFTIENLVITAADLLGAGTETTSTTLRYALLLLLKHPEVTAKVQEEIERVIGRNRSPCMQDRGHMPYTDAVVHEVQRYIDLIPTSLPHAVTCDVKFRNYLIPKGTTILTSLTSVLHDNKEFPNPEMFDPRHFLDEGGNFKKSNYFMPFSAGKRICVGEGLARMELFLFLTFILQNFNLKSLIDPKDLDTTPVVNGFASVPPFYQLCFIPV

What is called AC50 is the concentration giving half of the maximal activity seen. For `Cc1ccc(Cl)cc1-n1c(=O)cc(N2CC(C)OC(C)C2)[nH]c1=O` (stereo not drawn), the AC50 entry in [1] and in [2] was “inconclusive” in each case.

`COc1ccc(-c2nnc(Nc3nc4c(F)cccc4s3)o2)c(OC)c1`: the IC50 in [3] is 13.7 µM (active).

Broadly, the EC50 is the concentration giving half of the maximal effect. In general, CC50 refers to the concentration giving 50% cytotoxicity. In the case of `O=c1c2ccccc2sn1-c1ccccc1`, the IC50 in data set [4] was 21 µM (active); in data set [5] it was > 66 µM (inactive); in [6], > 100 µM (inactive); in [7], 15.7 µM (active); in data set [8], 1.11 µM (active); in data set [12], 4 µM (active). In addition, the IC50 is 6.65 µM (active) in data set [13]; 6.4 µM (active) in data set [16]; 20.1 µM (active) in data set [17]; 0.941 µM (active) in data set [18]; 8.87 µM (active) in data set [19]; > 66 µM (inactive) in data set [20]. Also, the IC50 in data set [25] is 16.6 µM (inactive). In addition, the EC50 is 4.17 µM (active) in data set [9]; 41.1 µM (active) in data set [10]; 22.6 µM (active) in data set [11]; 0.227 µM (active) in data set [14]; 79.3 µM (inactive) in [22]; > 150 µM (not active) in data set [23]. Moreover, in data set [26], the EC50 is 0.888 µM (active). Also, the CC50 in data set [15] was 13.4 µM (active); in data set [21] it was 10.9 µM (active). The concentration at half-maximal activity (AC50) in [24] is 18.7 µM (active).

For the compound `COc1ccc(N2CCN(Cc3nc(N)nc(Nc4ccc(C)c(Cl)c4)n3)CC2)cc1`, the 50% effective concentration (EC50) in data set [27] is 26.8 µM (active); in data set [10] it was 28.9 µM (active); in data set [11] it was 24 µM (active); in data set [29] it was 9.58 µM (active); in [30], 13.7 µM (active). The IC50 in data set [28] is 3.03 µM (active); in [31], 4.31 µM (active).

For the compound `C[C@@H]1CN([C@@H](C)CO)C(=O)c2cccc(NC(=O)Nc3ccccc3)c2O[C@H]1CN(C)S(=O)(=O)c1ccc(F)cc1`, the AC50 in data set [32] was 61.3 µM (active).

As to `COC(=O)c1ccccc1NC(=O)NCc1cccnc1`, in data set [33], the IC50 is recorded as > 93.1 µM (not active). Also, the results for the half-maximal activity concentration (AC50) in data set [34] and in [35] were 3.47 µM (active) and 26.1 µM (active), respectively.

Take `O=C1NC(c2cccs2)Nc2sc3c(c21)CCCC3` (stereo not drawn): the AC50 in [36] is 129 µM (active).
